We go through 33 molecules from US11865176B2, “Compositions and methods of modulating anti-tumor immunity” (Dana-Farber Cancer Institute, Inc., priority 2016, dated 2024).

Where two headings read alike, the source gives them in different places.

In data set [1] the test system is PD-1-overexpressing Jurkat cells. In words: Small molecule screen: IL2 secretion (AlphaLISA) from stimulated PD-1-overexpressing Jurkat cells. Format: cell-based, human. A digest of the protocol: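 Cells (100,000/well) with compound at 3.3 μM final, stimulated by α-CD3/α-CD28/α-PD-1 Dynabeads at an 8:1 bead:cell ratio. IL2 in supernatants measured by AlphaLISA. Hits scored ≥3 SD from the mean of DMSO-treated, α-PD-1-bead-stimulated controls.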
A general note: In Alpha technology, singlet oxygen from a donor bead excites a nearby acceptor bead.

Data set [2] has as its target T1, regulatory domain of human NFATc3 (residues 1-400) (UniProt Q12968).
T1 sequence: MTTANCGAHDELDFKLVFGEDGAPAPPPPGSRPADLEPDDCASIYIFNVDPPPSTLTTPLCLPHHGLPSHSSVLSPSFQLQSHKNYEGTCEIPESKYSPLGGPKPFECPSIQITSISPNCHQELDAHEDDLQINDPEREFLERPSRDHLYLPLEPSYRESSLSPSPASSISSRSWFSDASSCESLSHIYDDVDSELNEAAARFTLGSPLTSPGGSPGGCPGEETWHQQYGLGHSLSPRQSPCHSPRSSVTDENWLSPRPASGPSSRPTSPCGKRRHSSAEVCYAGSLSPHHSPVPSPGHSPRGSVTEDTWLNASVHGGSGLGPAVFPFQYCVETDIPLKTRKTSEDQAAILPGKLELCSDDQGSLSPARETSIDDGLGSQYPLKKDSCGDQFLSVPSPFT

The mark [3] stands for this setting: IL2 level, replicate 1, 3.3 μM compound, α-CD3/α-CD28/α-PD-1 beads.
[4] abbreviates: IL2 level, replicate 2, 3.3 μM compound, α-CD3/α-CD28/α-PD-1 beads.
Setting [5] is: average of replicate Z scores, 3.3 μM compound.

Consider `CCCCn1c2ccc(O)cc2c2c3c(c(-c4ccccc4Cl)cc21)C(=O)NC3=O` [Wee1 Inhibitor II], for which the Zscore_1 in data set [1] (setting [3]) is on record as 0.7541. In data set [1] (setting [4]), the Zscore_2 is listed as −1.786. In data set [1] (setting [5]), the Zscore_AVG was −0.5162.

As for `O=C1NC(=O)c2c1c(-c1ccccc1Cl)cc1[nH]c3ccc(O)cc3c21` [Wee1 Inhibitor], the Zscore_1 in data set [1] (setting [3]) is on record as −0.6621. Besides, the Zscore_2 in data set [1] (setting [4]) is reported as −2.209. The Zscore_AVG in data set [1] (setting [5]) was −1.436.

As for `CCCCCCCCCCCCCCCCn1cc[n+](Cc2ccccc2)c1C.[I-]` [eEF-2 Kinase Inhibitor, NH125], the Zscore_1 in data set [1] (setting [3]) is −4.759. The Zscore_2 in data set [1] (setting [4]) is on record as −7.332. In addition, the Zscore_AVG in data set [1] (setting [5]) was −6.046.

Regarding `Oc1ccc2ccccc2c1SSc1c(O)ccc2ccccc12` [p21-Activated Kinase Inhibitor III, IPA-3], the Zscore_1 in data set [1] (setting [3]) is listed as −0.461. Further, the Zscore_2 in data set [1] (setting [4]) was 0.6426. This molecule yielded a Zscore_AVG in data set [1] (setting [5]) of 0.09079.

As for `CSc1nc(-c2ccnc(NC(C)c3ccccc3)c2)c(-c2ccc(F)cc2)[nH]1` (stereo not drawn) [p38 MAP Kinase Inhibitor III], the Zscore_1 in data set [1] (setting [3]) is reported as −0.7009. The molecule also gave a Zscore_2 in data set [1] (setting [4]) of 0.6426. Further, the Zscore_AVG in data set [1] (setting [5]) is −0.02917.

`O=S(=O)(c1c(O)c(Cl)cc(Cl)c1Cl)c1c(O)c(Cl)cc(Cl)c1Cl` [p38 MAP Kinase Inhibitor IV]: the Zscore_1 in data set [1] (setting [3]) was −0.6495. The same molecule returned a Zscore_2 in data set [1] (setting [4]) of 0.005311. In addition, the Zscore_AVG in data set [1] (setting [5]) is given as −0.3221.

Turning to `COc1cc(SC)ccc1C(=O)N1CCC(Cc2ccccc2)CC1` [p38 MAP Kinase Inhibitor VI, JX401], the Zscore_1 in data set [1] (setting [3]) is listed as −0.3753. Further, in data set [1] (setting [4]), the Zscore_2 is on record as −0.9241. The Zscore_AVG in data set [1] (setting [5]) is listed as −0.6497.

Consider `NC(=O)c1ccc2[nH]ccc2c1` [p38 MAP Kinase Inhibitor VII, SD-169], for which the Zscore_1 in data set [1] (setting [3]) came out at 0.7558. Further, the Zscore_2 in data set [1] (setting [4]) worked out at 1.067. This molecule had a Zscore_AVG in data set [1] (setting [5]) of 0.9116.

`O=c1c(-c2ccc(F)cc2)c(-c2ccncc2)[nH]n1-c1ccc(Cl)cc1` [p38 MAP Kinase Inhibitor]: in data set [1], the Zscore_1 was −0.7181, the Zscore_2 was −1.986 and the Zscore_AVG was −1.352.

“Akt Inhibitor XII, Isozyme- Selective, Akti-2” returned a Zscore_1 in data set [1] (setting [3]) of 5.536. For the same molecule, the Zscore_2 in data set [1] (setting [4]) turned out to be 15.29. In data set [1] (setting [5]), this molecule returned a Zscore_AVG of 10.41.

In the case of CaMKII Inhibitor, CK59, the Zscore_1 in data set [1] (setting [3]) is −0.8337. Also, in data set [1] (setting [4]), the Zscore_2 was −0.5161. Besides, the Zscore_AVG in data set [1] (setting [5]) is listed as −0.6749.

On to Cdk Inhibitor, p35, for which, in data set [1] (setting [3]), the Zscore_1 is recorded as −1.994. The Zscore_2 in data set [1] (setting [4]) was −1.733. For the same molecule, the Zscore_AVG in data set [1] (setting [5]) is on record as −1.864.

Consider G&omul; 7874, Hydrochloride, for which the Zscore_1 in data set [1] (setting [3]) is given as −4.465. For the same molecule, the Zscore_2 in data set [1] (setting [4]) is −6.385. For the same molecule, the Zscore_AVG in data set [1] (setting [5]) is on record as −5.425.

Consider GTP-14564, for which, in data set [1] (setting [3]), the Zscore_1 was −0.5638. The same molecule showed a Zscore_2 in data set [1] (setting [4]) of 2.605. This molecule registered a Zscore_AVG in data set [1] (setting [5]) of 1.021.

As for IKK Inhibitor VII, the Zscore_1 in data set [1] (setting [3]) is reported as −6.154. The Zscore_2 in data set [1] (setting [4]) is reported as −3.033. Also, the Zscore_AVG in data set [1] (setting [5]) was −4.594.

As for IKK-2 Inhibitor XI, in data set [1] (setting [3]), the Zscore_1 is listed as −4.485. Besides, in data set [1] (setting [4]), the Zscore_2 is reported as −6.012. Further, the Zscore_AVG in data set [1] (setting [5]) is reported as −5.248.

In data set [1] (setting [3]), Indirubin-3′-monoxime registered a Zscore_1 of 2.085. This molecule returned a Zscore_2 in data set [1] (setting [4]) of 1.884. Also, the Zscore_AVG in data set [1] (setting [5]) amounted to 1.985.

For Isogranulatinude, in data set [1] (setting [3]), the Zscore_1 is on record as 1.39. Besides, in data set [1] (setting [4]), the Zscore_2 amounted to 4.572. For the same molecule, the Zscore_AVG in data set [1] (setting [5]) is 2.981.

As for MEK1/2 Inhibitor II, the Zscore_1 in data set [1] (setting [3]) is given as −8.274. For the same molecule, the Zscore_2 in data set [1] (setting [4]) was −7.766. Moreover, in data set [1] (setting [5]), the Zscore_AVG is on record as −8.02.

Regarding PDK1/Akt/Flt Dual Pathway Inhibitor, in data set [1] (setting [3]), the Zscore_1 is −10.05. Also, the Zscore_2 in data set [1] (setting [4]) is given as −10.59. For the same molecule, the Zscore_AVG in data set [1] (setting [5]) is given as −10.32.

For PI 3-K&gamme;/CKII Inhibitor, the Zscore_1 in data set [1] (setting [3]) was −0.8209. Further, the Zscore_2 in data set [1] (setting [4]) is given as −0.5789. The Zscore_AVG in data set [1] (setting [5]) is −0.6999.

Consider PI 3-KbInhibitor II, for which the Zscore_2 in data set [1] (setting [4]) worked out at 2.315. The same molecule showed a Zscore_AVG in data set [1] (setting [5]) of 1.096.

Turning to PI 3-Kγ Inhibitor VII, the Zscore_1 in data set [1] (setting [3]) is reported as −0.08397. In addition, in data set [1] (setting [4]), the Zscore_2 is on record as −0.6851. Besides, the Zscore_AVG in data set [1] (setting [5]) is reported as −0.3845.

In the case of PIM1 Kinase Inhibitor II, the Zscore_1 in data set [1] (setting [3]) is −1.398. The Zscore_2 in data set [1] (setting [4]) is on record as −0.8562. Also, the Zscore_AVG in data set [1] (setting [5]) is on record as −1.127.

Turning to PIM1 Kinase Inhibitor IV, the Zscore_1 in data set [1] (setting [3]) is −1.455. Moreover, in data set [1] (setting [4]), the Zscore_2 is recorded as −0.7294. In addition, the Zscore_AVG in data set [1] (setting [5]) is recorded as −1.092.

With PIM1/2 Kinase Inhibitor V, the Zscore_1 in data set [1] (setting [3]) is −0.917. This molecule came in with a Zscore_2 in data set [1] (setting [4]) of 0.2008. The Zscore_AVG in data set [1] (setting [5]) is listed as −0.3581.

With Polo-like Kinase Inhibitor I, the Zscore_1 in data set [1] (setting [3]) was −0.8886. The molecule also showed a Zscore_2 in data set [1] (setting [4]) of 0.6237. In data set [1] (setting [5]), the Zscore_AVG was −0.1325.

With Scytonemin, Lyngbya sp., the Zscore_1 in data set [1] (setting [3]) was 0.1217. Moreover, the Zscore_2 in data set [1] (setting [4]) is −0.3399. Also, the Zscore_AVG in data set [1] (setting [5]) was −0.1091.

With Staurosporine, N-benzoyl-, the Zscore_1 in data set [1] (setting [3]) is −5.987. Besides, the Zscore_2 in data set [1] (setting [4]) is listed as −7.072. For the same molecule, in data set [1] (setting [5]), the Zscore_AVG is −6.529.

Take Tpl2 Kinase Inhibitor II: the Zscore_1 in data set [1] (setting [3]) is on record as −2.398. In addition, the Zscore_2 in data set [1] (setting [4]) was −4.19. For the same molecule, the Zscore_AVG in data set [1] (setting [5]) was −3.294.

For VEGFR Tyrosine Kinase Inhibitor IV, the Zscore_1 in data set [1] (setting [3]) is −0.8723. Besides, in data set [1] (setting [4]), the Zscore_2 was −2.305. Moreover, the Zscore_AVG in data set [1] (setting [5]) is recorded as −1.589.

For p38 MAP Kinase Inhibitor VIII, the Zscore_1 in data set [1] (setting [3]) is given as −1.144. Besides, the Zscore_2 in data set [1] (setting [4]) is given as −1.448. Further, in data set [1] (setting [5]), the Zscore_AVG is on record as −1.296.

Regarding recombinant CDK4/cyclin D1, the “in vitro phosphorylation of 15N-labeled NFATc3 (1-400), followed by 2D 15N-HSQC NMR” value in data set [2] is “However, this did not occur when NFAT4 was incubated with CDK4”.
